Values of other authors in US20170369926A1, “NEW MARKERS FOR EARLY DIAGNOSIS OF OVARIAN CANCER, MONITORING DURING THERAPY, AND NEW THERAPY OPTIONS DURING AND AFTER CHEMOTHERAPY” (Bioventures, LLC, priority 2011, published 2017).

Columns and labels:
plasma kallikrein = plasma kallikrein (Homo sapiens, UniProt P03952); conditions: from reference (15)
hepsin = hepsin (Homo sapiens, UniProt P05981); conditions: literature statement
hepsin, sequence (P05981 whole entry): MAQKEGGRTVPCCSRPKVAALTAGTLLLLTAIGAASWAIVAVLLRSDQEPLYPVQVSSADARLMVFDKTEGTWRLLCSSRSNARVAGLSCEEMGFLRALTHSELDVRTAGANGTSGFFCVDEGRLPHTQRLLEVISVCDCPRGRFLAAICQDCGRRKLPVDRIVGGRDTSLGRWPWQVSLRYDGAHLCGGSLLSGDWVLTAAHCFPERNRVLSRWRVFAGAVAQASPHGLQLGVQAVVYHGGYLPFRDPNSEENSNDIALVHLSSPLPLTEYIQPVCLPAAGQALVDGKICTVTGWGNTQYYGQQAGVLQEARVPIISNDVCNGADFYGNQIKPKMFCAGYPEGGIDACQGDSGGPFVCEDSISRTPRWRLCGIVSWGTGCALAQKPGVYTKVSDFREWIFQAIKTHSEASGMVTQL

plasma kallikrein, sequence (P03952 20-638, species assumed): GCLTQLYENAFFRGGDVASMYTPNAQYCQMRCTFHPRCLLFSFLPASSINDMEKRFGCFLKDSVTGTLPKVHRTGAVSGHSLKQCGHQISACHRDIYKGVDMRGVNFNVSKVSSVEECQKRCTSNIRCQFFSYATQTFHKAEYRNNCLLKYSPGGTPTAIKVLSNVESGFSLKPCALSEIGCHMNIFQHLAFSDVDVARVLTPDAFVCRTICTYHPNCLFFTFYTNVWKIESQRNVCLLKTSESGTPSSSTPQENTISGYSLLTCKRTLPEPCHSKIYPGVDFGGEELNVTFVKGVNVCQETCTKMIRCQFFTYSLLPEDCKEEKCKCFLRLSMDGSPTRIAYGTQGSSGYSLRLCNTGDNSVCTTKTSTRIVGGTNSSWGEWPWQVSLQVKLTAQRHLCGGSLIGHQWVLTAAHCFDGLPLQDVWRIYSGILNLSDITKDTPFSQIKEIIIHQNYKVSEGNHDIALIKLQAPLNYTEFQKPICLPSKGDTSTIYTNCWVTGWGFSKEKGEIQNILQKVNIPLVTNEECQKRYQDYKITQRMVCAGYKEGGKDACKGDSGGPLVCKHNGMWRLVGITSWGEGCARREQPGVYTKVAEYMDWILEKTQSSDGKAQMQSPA

| Structure (SMILES) | IC50 (plasma kallikrein) | effective dose by intraperitoneal injection in mice (intraperitoneal injection, reference (5)) | effective dose orally in mice (oral, in food) | inhibition of hepsin (hepsin) |
| --- | --- | --- | --- | --- |
| CN(C)C(=O)COC(=O)Cc1ccc(OC(=O)c2ccc(NC(=N)N)cc2)cc1.CS(=O)(=O)O [FOY-305] | 1.5 µM | 20 mg/kg | 0.1 % of the food |  |
| CC(C)(Sc1cc(C(C)(C)C)c(O)c(C(C)(C)C)c1)Sc1cc(C(C)(C)C)c(O)c(C(C)(C)C)c1 [Probucol, probucol] |  |  |  | inhibits hepsin |
